Patent US11234437B2 (priority 2017, dated 2022)

Assays:
[1] = test system: Magnaporthe grisea (Pyricularia oryzae); test: microbe, parasite or virus in culture; type: cell-based; conditions: read-out: control of Magnaporthe grisea
[2] = test system: Monographella nivalis (Microdochium nivale); test: Monographella nivalis (Microdochium nivale) / liquid culture (foot rot cereals); type: cell-based; conditions: compared to untreated control
Protocol: Monographella nivalis (Microdochium nivale)/Liquid Culture (Foot Rot Cereals)
(§1) Conidia of the fungus from cryogenic storage are directly mixed into nutrient broth (PDB potato dextrose broth). After placing a (DMSO) solution of test compound into a microtiter plate (96-well format), the nutrient broth containing the fungal spores is added. The test plates are incubated at 24° C. and the inhibition of growth is determined photometrically 4-5 days after application.

[3] = test system: Gibberella zeae (Fusarium graminearum); test: whole plant or invertebrate; type: in vivo; conditions: in Triticum aestivum, read-out: control of Gibberella zeae
Gaeumannomyces graminis = Gaeumannomyces graminis / liquid culture (take-all of cereals); type: cell-based; conditions: compared to untreated control
Protocol: as §1, with “Mycelial fragments of” for “Conidia of”, “storage were” for “storage are”

[4] = test system: Glomerella lagenarium (Colletotrichum lagenarium); test: Glomerella lagenarium (Colletotrichum lagenarium) / liquid culture (anthracnose); type: cell-based; conditions: Colletotrichum orbiculare, compared to untreated control
Protocol: as §1, with “measured” for “determined”, “3-4” for “4-5”

[5] = test system: Botryotinia fuckeliana (Botrytis cinerea); test: Botryotinia fuckeliana (Botrytis cinerea) / liquid culture (gray mould); type: cell-based; conditions: compared to untreated control
Protocol: Botryotinia fuckeliana (Botrytis cinerea)/Liquid Culture (Gray Mould)
as §1, with “(Vogels” for “(PDB potato dextrose”, “3-4” for “4-5”

Fusarium culmorum = test: microbe, parasite or virus in culture; type: cell-based; conditions: read-out: control of Fusarium culmorum
Sclerotinia sclerotiorum = Sclerotinia sclerotiorum / liquid culture (cottony rot); type: cell-based; conditions: compared to untreated control
Protocol: Sclerotinia sclerotiorum/Liquid Culture (Cottony Rot)
as §1, with “Mycelia fragments of a newly grown liquid culture” for “Conidia”, “fungus” for “fungus from cryogenic storage”, “(Vogels” for “(PDB potato dextrose”, “format)” for “format),”, “material” for “spores”, “3-4” for “4-5”

For `C=C(C)CC(C)(Cc1ccccc1)NC(=O)c1cnc2c(F)cccc2c1` (centres unmarked) [X.009, N-(1-benzyl-1,3-dimethyl-but-3-enyl)-8-fluoro-quinoline-3-carboxamide], the inhibition of growth at 20 ppm [1] was no less than 80%, the inhibition of growth at 20 ppm [2] was no less than 80% and the pest or weed control at 200 ppm [3] was no less than 80%. The inhibition of growth at 20 ppm (Gaeumannomyces graminis) was no less than 80%.
Compound `Cc1cccc2cc(C(=O)NC(C)(Cc3ccccc3)CC(F)(F)F)cnc12` (centres unmarked) [X.004, N-(1-benzyl-3,3,3-trifluoro-1-methyl-propyl)-8-methyl-quinoline-3-carboxamide] has an inhibition of growth at 20 ppm [1] of no less than 80%, an inhibition of growth at 20 ppm [2] of no less than 80% and a pest or weed control at 200 ppm [3] of no less than 80%. It also gave a melting point of 120 to 123 °C.
Compound `CC(C)CC(C)(Cc1ccccc1)NC(=O)c1cnc2ccccc2c1` (centres unmarked) [X.019, N-(1-benzyl-1,3-dimethyl-butyl)quinoline-3-carboxamide] has an inhibition of growth at 20 ppm [2] of no less than 80%, a pest or weed control at 200 ppm [3] of no less than 80% and an inhibition of growth at 20 ppm (Gaeumannomyces graminis) of no less than 80%. It also gave a melting point of 121 to 123 °C.
`CC1(C[C@@](C)(Cc2ccccc2)NC(=O)c2cnc3c(F)cccc3c2)CC1` [Compound F-26, N-[(1S)-1-benzyl-1-methyl-2-(1-methylcyclopropyl)ethyl]-8-fluoro-quinoline-3-carboxamide] showed an inhibition of growth at 20 ppm [1] of no less than 80%, an inhibition of growth at 200 ppm [4] of no less than 80% and an inhibition of growth at 20 ppm [2] of no less than 80%. For the same compound, the inhibition of growth at 200 ppm [5] was no less than 80% and the inhibition of growth at 200 ppm (Fusarium culmorum) was no less than 80%.
`Cc1cccc2cc(C(=O)NC(C)(Cc3ccccc3)CC(C)C)cnc12` (centres unmarked) [X.017, N-(1-benzyl-1,3-dimethyl-butyl)-8-methyl-quinoline-3-carboxamide] showed an inhibition of growth at 20 ppm [1] of no less than 80%, an inhibition of growth at 20 ppm [2] of no less than 80% and a pest or weed control at 200 ppm [3] of no less than 80%. For the same compound, the inhibition of growth at 20 ppm (Gaeumannomyces graminis) was no less than 80% and the melting point was 132 to 133 °C.
With `C=C(C)C[C@@](C)(Cc1ccccc1)NC(=O)c1cnc2c(F)cccc2c1` [Compound F-6, N-[(1S)-1-benzyl-1,3-dimethyl-but-3-enyl]-8-fluoro-quinoline-3-carboxamide] the inhibition of growth at 20 ppm [2] was no less than 80%, the pest or weed control at 200 ppm [3] was no less than 80% and the inhibition of growth at 20 ppm (Gaeumannomyces graminis) was no less than 80%.
With `CC(C)CC(C)(Cc1cccc(F)c1)NC(=O)c1cnc2c(F)cccc2c1` (centres unmarked) [X.011, 8-fluoro-N-[1-[(3-fluorophenyl)methyl]-1,3-dimethyl-butyl]quinoline-3-carboxamide] the inhibition of growth at 20 ppm [1] was no less than 80%, the inhibition of growth at 20 ppm [2] was no less than 80% and the inhibition of growth at 20 ppm (Gaeumannomyces graminis) was no less than 80%. It also gave a melting point of 45 to 47 °C.
Compound `CC(C)C[C@](C)(Cc1ccccc1)NC(=O)c1cnc2ccccc2c1` [Compound F-4, N-[(1R)-1-benzyl-1,3-dimethyl-butyl]quinoline-3-carboxamide] has an inhibition of growth at 20 ppm [1] of no less than 80% and an inhibition of growth at 20 ppm (Gaeumannomyces graminis) of no less than 80%.
With `C[C@](Cc1ccccc1)(CC(F)(F)F)NC(=O)c1cnc2c(F)c(F)ccc2c1` [Compound F-21, N-[(1S)-1-benzyl-3,3,3-trifluoro-1-methyl-propyl]-7,8-difluoro-quinoline-3-carboxamide] the inhibition of growth at 20 ppm [1] was no less than 80% and the inhibition of growth at 20 ppm (Sclerotinia sclerotiorum) was no less than 80%.
For `CC1(CC(C)(Cc2ccccc2)NC(=O)c2cnc3c(F)cccc3c2)CC1` (centres unmarked) [X.003, N-[1-benzyl-1-methyl-2-(1-methylcyclopropyl)ethyl]-8-fluoro-quinoline-3-carboxamide], the inhibition of growth at 20 ppm [1] was no less than 80%, the pest or weed control at 200 ppm [3] was no less than 80% and the inhibition of growth at 20 ppm (Gaeumannomyces graminis) was no less than 80%. It also gave a melting point of 126 to 129 °C.
In the case of `CC(C)C[C@@](C)(Cc1ccccc1)NC(=O)c1cnc2ccccc2c1` [Compound F-3, N-[(1S)-1-benzyl-1,3-dimethyl-butyl]quinoline-3-carboxamide], the inhibition of growth at 20 ppm [1] is reported as no less than 80%, the inhibition of growth at 20 ppm [2] is reported as no less than 80% and the inhibition of growth at 20 ppm (Gaeumannomyces graminis) is reported as no less than 80%.
In the case of `C=C(Cl)C[C@@](C)(Cc1ccccc1)NC(=O)c1cnc2c(F)cccc2c1` [Compound F-36], the inhibition of growth at 200 ppm [4] is reported as no less than 80%, the inhibition of growth at 200 ppm [5] is reported as no less than 80% and the inhibition of growth at 200 ppm (Fusarium culmorum) is reported as no less than 80%.
In the case of `CC(C)C[C@](C)(Cc1ccccc1)NC(=O)c1cnc2c(F)cccc2c1` [Compound F-2, N-[(1R)-1-benzyl-1,3-dimethyl-butyl]-8-fluoro-quinoline-3-carboxamide], the inhibition of growth at 20 ppm [1] is reported as no less than 80%, the inhibition of growth at 20 ppm [2] is reported as no less than 80% and the inhibition of growth at 20 ppm (Gaeumannomyces graminis) is reported as no less than 80%.
Work on `CC(C)CC(C)(Cc1ccccc1)NC(=O)c1cnc2c(F)cccc2c1` (centres unmarked) [X.002, N-(1-benzyl-1,3-dimethyl-butyl)-8-fluoro-quinoline-3-carboxamide] yielded an inhibition of growth at 20 ppm [1] of no less than 80%, an inhibition of growth at 20 ppm [2] of no less than 80% and an inhibition of growth at 20 ppm (Gaeumannomyces graminis) of no less than 80%. The melting point was 110 to 112 °C.
`C[C@](Cc1ccccc1)(CC(F)(F)F)NC(=O)c1cnc2c(Cl)cccc2c1` [Compound F-19, N-[(1S)-1-benzyl-3,3,3-trifluoro-1-methyl-propyl]-8-chloro-quinoline-3-carboxamide] gave an inhibition of growth at 20 ppm [1] of no less than 80%, a pest or weed control at 200 ppm [3] of no less than 80% and an inhibition of growth at 20 ppm (Sclerotinia sclerotiorum) of no less than 80%.
`CC(C)(C)CC(C)(Cc1ccccc1)NC(=O)c1cnc2c(F)cccc2c1` (centres unmarked) [X.016, N-(1-benzyl-1,3,3-trimethyl-butyl)-8-fluoro-quinoline-3-carboxamide] showed an inhibition of growth at 20 ppm [1] of no less than 80%, an inhibition of growth at 20 ppm [2] of no less than 80% and a pest or weed control at 200 ppm [3] of no less than 80%. For the same compound, the melting point was 48 to 50 °C.
With `CC(F)(F)C[C@](C)(Cc1ccccc1)NC(=O)c1cnc2c(F)cccc2c1` [Compound F-32, N-[(1S)-1-benzyl-3,3-difluoro-1-methyl-butyl]-8-fluoro-quinoline-3-carboxamide] the inhibition of growth at 20 ppm [1] was no less than 80%, the pest or weed control at 200 ppm [3] was no less than 80% and the inhibition of growth at 20 ppm (Sclerotinia sclerotiorum) was no less than 80%.
`C=C(C)CC(C)(Cc1ccccc1)NC(=O)c1cnc2c(F)c(F)ccc2c1` (centres unmarked) [X.010, N-(1-benzyl-1,3-dimethyl-but-3-enyl)-7,8-difluoro-quinoline-3-carboxamide] gave an inhibition of growth at 20 ppm [1] of no less than 80%, an inhibition of growth at 20 ppm [2] of no less than 80% and a pest or weed control at 200 ppm [3] of no less than 80%. It also gave a melting point of 94 to 96 °C.
`CC(C)CC(C)(Cc1ccccc1)NC(=O)c1cnc2c(Cl)cccc2c1` (centres unmarked) [X.018, N-(1-benzyl-1,3-dimethyl-butyl)-8-chloro-quinoline-3-carboxamide] showed an inhibition of growth at 20 ppm [1] of no less than 80%, an inhibition of growth at 20 ppm [2] of no less than 80% and an inhibition of growth at 20 ppm (Gaeumannomyces graminis) of no less than 80%. It also gave a melting point of 147 to 148 °C.
For `CC(C)C[C@@](C)(Cc1ccccc1)NC(=O)c1cnc2c(F)cccc2c1` [Compound F-1, N-[(1S)-1-benzyl-1,3-dimethyl-butyl]-8-fluoro-quinoline-3-carboxamide], the inhibition of growth at 20 ppm [1] was no less than 80%, the inhibition of growth at 20 ppm [2] was no less than 80% and the inhibition of growth at 20 ppm (Gaeumannomyces graminis) was no less than 80%.
`CC(C)(C)C[C@](C)(Cc1ccccc1)NC(=O)c1cnc2c(F)cccc2c1` [Compound F-10, N-[(1R)-1-benzyl-1,3,3-trimethyl-butyl]-8-fluoro-quinoline-3-carboxamide] gave a pest or weed control at 200 ppm [3] of no less than 80% and an inhibition of growth at 20 ppm (Gaeumannomyces graminis) of no less than 80%.
Compound `CC(C)(C)C[C@@](C)(Cc1ccccc1)NC(=O)c1cnc2c(F)cccc2c1` [Compound F-9, N-[(1S)-1-benzyl-1,3,3-trimethyl-butyl]-8-fluoro-quinoline-3-carboxamide] has an inhibition of growth at 20 ppm [2] of no less than 80%, a pest or weed control at 200 ppm [3] of no less than 80% and an inhibition of growth at 20 ppm (Gaeumannomyces graminis) of no less than 80%.
`CC(Cc1ccccc1)(CC(F)(F)F)NC(=O)c1cnc2c(F)cccc2c1` (centres unmarked) [X.006, N-(1-benzyl-3,3,3-trifluoro-1-methyl-propyl)-8-fluoro-quinoline-3-carboxamide] gave an inhibition of growth at 20 ppm [1] of no less than 80%, a pest or weed control at 200 ppm [3] of no less than 80% and an inhibition of growth at 20 ppm (Gaeumannomyces graminis) of no less than 80%. It also gave a melting point of 158 to 160 °C.
In the case of `CC(C)CC(C)(Cc1ccccc1)NC(=O)c1cnc2c(F)c(F)ccc2c1` (centres unmarked) [X.008, N-(1-benzyl-1,3-dimethyl-butyl)-7,8-difluoro-quinoline-3-carboxamide], the inhibition of growth at 20 ppm [1] is reported as no less than 80%, the inhibition of growth at 20 ppm [2] is reported as no less than 80% and the pest or weed control at 200 ppm [3] is reported as no less than 80%. The inhibition of growth at 20 ppm (Gaeumannomyces graminis) was no less than 80% and the melting point was 114 to 116 °C.
In the case of `CC(Cc1ccccc1)(CC(F)(F)F)NC(=O)c1cnc2c(Cl)cccc2c1` (centres unmarked) [X.005, N-(1-benzyl-3,3,3-trifluoro-1-methyl-propyl)-8-chloro-quinoline-3-carboxamide], the inhibition of growth at 20 ppm [1] is reported as no less than 80%, the inhibition of growth at 20 ppm [2] is reported as no less than 80% and the pest or weed control at 200 ppm [3] is reported as no less than 80%. The melting point was 141 to 144 °C.
Work on `CC(Cc1ccccc1)(CC(F)(F)F)NC(=O)c1cnc2c(F)c(F)ccc2c1` (centres unmarked) [X.007, N-(1-benzyl-3,3,3-trifluoro-1-methyl-propyl)-7,8-difluoro-quinoline-3-carboxamide] yielded an inhibition of growth at 20 ppm [1] of no less than 80%, a pest or weed control at 200 ppm [3] of no less than 80% and an inhibition of growth at 20 ppm (Sclerotinia sclerotiorum) of no less than 80%.
